Experimental data: patent US20220364989A1, “METHOD FOR MEASURING PHOTOTOXICITY OR PHOTOALLERGY AND REAGENT FOR USE THEREIN” (FUJIFILM Corporation, priority 2018, published 2022)
Counter-ions that a name gives are not always drawn. Like-named read-outs stand apart in the source and are kept apart here.

How the values were obtained:
[1] = cited from earlier work
[2] = cited from earlier work; remark: listed apart in the source
[3] = NAL depletion under and without ultraviolet irradiation, HPLC with UV detection (281 nm); conditions: for NAL Depletion (%) without light irradiation: 25° C. 24 hours light-shielded; for NAL Depletion (%) without light irradiation / NAL Depletion (%) under light irradiation: test substance solution 1 mmol/L; for NAL Depletion (%) under light irradiation: 2,000 μW/cm^2 for 1 hour then 25° C. 23 hours
[4] = NAL depletion under and without ultraviolet irradiation, HPLC with fluorescence detection (284 nm excitation, 333 nm fluorescence); conditions: single compound
[5] = NAC depletion under and without ultraviolet irradiation, HPLC with UV detection (281 nm); conditions: for NAC Depletion (%) without light irradiation: 25° C. 24 hours light-shielded; for NAC Depletion (%) without light irradiation / NAC Depletion (%) under light irradiation: test substance solution 1 mmol/L; for NAC Depletion (%) under light irradiation: 2,000 μW/cm^2 for 1 hour then 25° C. 23 hours
[6] = NAC depletion under and without ultraviolet irradiation, HPLC with fluorescence detection (284 nm excitation, 333 nm fluorescence); conditions: single compound
[7] = Average score of NAC and NAL depletion and phototoxicity or photoallergy determination, fluorescence detection; conditions: under light irradiation, single compound

## O=C(Nc1ccc(Cl)cc1)Nc1ccc(Cl)c(Cl)c1 [No. 20, Triclocarban]
[1]; literature classification
  In vivo photoallergy: Positive
[2]; literature classification
  In vivo phototoxicity: Negative

## COc1c2ccoc2cc2oc(=O)ccc12 [No. 31, 5-Methoxypsoralen]
[1]; literature classification
  In vivo photoallergy: Negative
[2]; literature classification
  In vivo phototoxicity: Positive

## NS(=O)(=O)c1cc2c(cc1Cl)NCNS2(=O)=O [No. 24, Hydrochlorothiazide]
[1]; literature classification
  In vivo photoallergy: Positive

## COc1cc(O)c(C(=O)c2ccccc2)cc1S(=O)(=O)O [No. 57, Sulisobenzone]
[1]; literature classification
  In vivo photoallergy: Negative
[2]; literature classification
  In vivo phototoxicity: Negative

## CCOc1ccc2c(C)cc(=O)oc2c1 [No. 29, 4-Methyl-7-ethoxycoumarin]
[1]; literature classification
  In vivo photoallergy: Positive

## Nc1ccc(N)cc1 [No. 11, p-Phenylenediamine]
[1]; literature classification
  In vivo photoallergy: Positive

## Cc1ccc2oc(=O)ccc2c1 [No. 2, 6-Methylcoumarin]
[1]; literature classification
  In vivo photoallergy: Positive
[2]; literature classification
  In vivo phototoxicity: Positive

## C=CC1CN2CCC1CC2C(O)c1ccnc2ccc(OC)cc12.Cl.O.O (stereo not shown) [compound 15]
[3]
  Difference in depletion (under light irradiation - without light irradiation) NAL (%): 4.1%
  NAL Depletion (%) without light irradiation: 0.0%
  NAL Depletion (%) under light irradiation: 4.1%
[4]
  Difference in depletion (under light irradiation - without light irradiation) NAL (%): 0.7%
[4]; without light irradiation
  NAL Depletion (%): 0.0%
[5]
  Difference in depletion (under light irradiation - without light irradiation) NAC (%): 98.9%
  NAC Depletion (%) without light irradiation: 1.1%
  NAC Depletion (%) under light irradiation: 100.0%
[6]
  Difference in depletion (under light irradiation - without light irradiation) NAC (%): 98.8%
[6]; without light irradiation
  NAC Depletion (%): 1.0%

## CCCCCCCCCCCCCCCCO [No. 49, Cetyl alcohol]
[1]; literature classification
  In vivo photoallergy: Negative
[2]; literature classification
  In vivo phototoxicity: Negative

## CC(C)O [No. 47, 2-Propanol]
[1]; in vivo
  In vivo photoallergy: Negative
[7]
  Average score (%): 0.2%
[2]; in vivo
  In vivo phototoxicity: Negative

## CCCCCCCCCCCC(=O)[O-].[Na+] [No. 55, Sodium laurate]
[1]; literature classification
  In vivo photoallergy: Negative

## C=C[C@H]1CN2CC[C@H]1C[C@H]2[C@H](O)c1ccnc2ccc(OC)cc12.Cl.O.O [No. 15, Quinine HCl (2H2O), reference compound]
[4]; under light irradiation
  NAL Depletion (%): 0.7%
[6]; under light irradiation
  NAC Depletion (%): 99.8%

## O=C([O-])Cc1ccccc1Nc1c(Cl)cccc1Cl.[Na+] [compound 13]
[1]; reported in References 1 and 2
  In vivo photoallergy: Positive
[3]
  NAL Depletion (%) without light irradiation: 0.0%
  NAL Depletion (%) under light irradiation: −4.1%
[4]
  Difference in depletion (under light irradiation - without light irradiation) NAL (%): 0.0%
[4]; without light irradiation
  NAL Depletion (%): 0.0%
[5]
  Difference in depletion (under light irradiation - without light irradiation) NAC (%): 99.4%
  NAC Depletion (%) without light irradiation: 0.6%
  NAC Depletion (%) under light irradiation: 100.0%
[6]
  Difference in depletion (under light irradiation - without light irradiation) NAC (%): 100.0%
[6]; without light irradiation
  NAC Depletion (%): 0.0%

## COc1ccc2ccc(=O)oc2c1 [7-Methoxy coumarin]
[1]; literature classification
  In vivo photoallergy: Positive

## CN(C)C1C(O)=C(C(N)=O)C(=O)C2(O)C(O)=C3C(=O)c4c(O)cccc4C(C)(O)C3CC12 (stereo not shown) [compound 36]
[1]; reported in References 1 and 2
  In vivo photoallergy: Negative
[3]
  Difference in depletion (under light irradiation - without light irradiation) NAL (%): 22.5%
  NAL Depletion (%) without light irradiation: 5.1%
  NAL Depletion (%) under light irradiation: 27.6%
[4]
  Difference in depletion (under light irradiation - without light irradiation) NAL (%): 25.6%
[4]; without light irradiation
  NAL Depletion (%): 3.0%
[5]
  NAC Depletion (%) without light irradiation: −59.4%
  NAC Depletion (%) under light irradiation: 44.6%
[6]
  Difference in depletion (under light irradiation - without light irradiation) NAC (%): 43.4%
[6]; without light irradiation
  NAC Depletion (%): 56.6%

## O=C([O-])Cc1ccccc1Nc1c(Cl)cccc1Cl.[Na+] [No. 13, Diclofenac Na, reference compound]
[1]; literature classification
  In vivo photoallergy: Positive
[4]; under light irradiation
  NAL Depletion (%): 0.0%
[6]; under light irradiation
  NAC Depletion (%): 100.0%

## Cc1ccc(C=C2C(=O)C3(C)CCC2C3(C)C)cc1 (stereo not shown) [No. 39, 4′-Methylbenzylidene camphor]
[1]; in vivo
  In vivo photoallergy: Negative
[7]
  Average score (%): 2.0%
[2]; in vivo
  In vivo phototoxicity: Negative

## OCC(O)CO [No. 51, Glycerine]
[2]; literature classification
  In vivo phototoxicity: Negative

## COc1ccc2ccc(=O)oc2c1 [compound 30, 7-Methoxycoumarin]
[1]; reported in References 1 and 2
  In vivo photoallergy: Positive

## CNc1ccccc1C(=O)OC [No. 32, Methyl-N-methylanthranilate]
[1]; literature classification
  In vivo photoallergy: Negative
[2]; literature classification
  In vivo phototoxicity: Positive

## CN1C(C(=O)Nc2ccccn2)=C(O)c2ccccc2S1(=O)=O [No. 8, Piroxicam]
[1]; literature classification
  In vivo photoallergy: Positive
[2]; literature classification
  In vivo phototoxicity: Positive

## Nc1ccc(N)cc1 [compound 11, p-Phenylenediamine]
[1]; reported in References 1 and 2
  In vivo photoallergy: Positive
[2]; in vivo
  In vivo phototoxicity: Positive

## CC(C)OC(=O)C(C)(C)Oc1ccc(C(=O)c2ccc(Cl)cc2)cc1 [No. 38, Fenofibrate]
[2]; literature classification
  In vivo phototoxicity: Positive

## CCCCCCCCCCCCCC(=O)OC(C)C [No. 52, Isopropyl myristate]
[1]; literature classification
  In vivo photoallergy: Negative
[2]; literature classification
  In vivo phototoxicity: Negative

## Cc1ncc(CO)c(CO)c1O.Cl [compound 9, Pyridoxine HCl]
[1]; in vivo
  In vivo photoallergy: Positive
[2]; in vivo
  In vivo phototoxicity: Positive

## COc1c(C(C)(C)C)cc([N+](=O)[O-])c(C)c1[N+](=O)[O-] [No. 17, Musk ambrette]
[1]; literature classification
  In vivo photoallergy: Positive
[2]; literature classification
  In vivo phototoxicity: Negative

## COC(=O)c1ccccc1O [compound 43, Methyl salicylate]
[1]; reported in References 1 and 2
  In vivo photoallergy: Negative
[2]; reported in References 1 to 3
  In vivo phototoxicity: Negative

## CCn1cc(C(=O)O)c(=O)c2cc(F)c(N3CCNCC3)nc21 [No. 6, Enoxacin]
[1]; literature classification
  In vivo photoallergy: Positive
[2]; literature classification
  In vivo phototoxicity: Positive

## CNc1ccccc1C(=O)OC [compound 32, Methyl-N-methylanthranilate]
[1]; reported in References 1 and 2
  In vivo photoallergy: Negative
[2]; reported in References 1 to 3
  In vivo phototoxicity: Positive

## c1ccc2nc3ccccc3cc2c1 [compound 34, Acridine]
[1]; reported in References 1 and 2
  In vivo photoallergy: Negative
[2]; reported in References 1 to 3
  In vivo phototoxicity: Positive

## CCCCCCCCCCCCCC(=O)OC(C)C [compound 52, Isopropyl myristate]
[1]; reported in References 1 and 2
  In vivo photoallergy: Negative
[2]; reported in References 1 to 3
  In vivo phototoxicity: Negative

## CN(C)CCCN1c2ccccc2Sc2ccc(Cl)cc21 [No. 1, Chlorpromazine HCl]
[1]; literature classification
  In vivo photoallergy: Positive
[2]; literature classification
  In vivo phototoxicity: Positive

## CC(O)C(=O)O (stereo not shown) [No. 59, Lactic acid]
[1]; literature classification
  In vivo photoallergy: Negative

## CCOC(=O)c1ccc(N)cc1 [No. 41, Benzocaine]
[1]; literature classification
  In vivo photoallergy: Negative
[2]; literature classification
  In vivo phototoxicity: Negative

## c1ccc2nc3ccccc3cc2c1 [No. 34, Acridine]
[1]; literature classification
  In vivo photoallergy: Negative
[2]; literature classification
  In vivo phototoxicity: Positive

## Oc1ccc(Cl)cc1Sc1cc(Cl)ccc1O [No. 22, Fenticlor]
[1]; literature classification
  In vivo photoallergy: Positive

## NNC(=O)c1ccncc1 [No. 25, Isoniazid]
[1]; literature classification
  In vivo photoallergy: Positive

## Nc1ccc(S(N)(=O)=O)cc1 [No. 27, Sulfanilamide]
[1]; literature classification
  In vivo photoallergy: Positive

## O=C(Nc1ccc(Br)cc1)c1cc(Br)cc(Br)c1O [No. 10, Tribromsalan]
[1]; in vivo
  In vivo photoallergy: Positive
[2]; in vivo
  In vivo phototoxicity: Positive

## CCCCCCCCCCCC(=O)O [No. 53, Lauric acid]
[1]; literature classification
  In vivo photoallergy: Negative
[2]; literature classification
  In vivo phototoxicity: Negative

## CCCCCCCCCCCC(=O)[O-].[Na+] [compound 55, Sodium laurate]
[1]; reported in References 1 and 2
  In vivo photoallergy: Negative
[2]; in vivo
  In vivo phototoxicity: Negative

## c1ccc2cc3ccccc3cc2c1 [compound 35, Anthracene]
[1]; reported in References 1 and 2
  In vivo photoallergy: Negative
[2]; reported in References 1 to 3
  In vivo phototoxicity: Positive

## O=C(c1ccccc1)c1ccccc1 [No. 4, Benzophenone]
[1]; in vivo
  In vivo photoallergy: Positive

## CC(=O)Oc1ccccc1C(=O)O [No. 40, Aspirin]
[1]; literature classification
  In vivo photoallergy: Negative
[2]; literature classification
  In vivo phototoxicity: Negative

## CCCCCCCCCCCC(=O)O [compound 53, Lauric acid]
[1]; reported in References 1 and 2
  In vivo photoallergy: Negative
[2]; reported in References 1 to 3
  In vivo phototoxicity: Negative

## CCCCCCCCCCCCOS(=O)(=O)[O-].[Na+] [compound 56, Sodium lauryl sulfate]
[2]; in vivo
  In vivo phototoxicity: Negative

## CC(=O)c1c(C)c([N+](=O)[O-])c(C(C)(C)C)c([N+](=O)[O-])c1C [No. 33, Musk ketone]
[1]; literature classification
  In vivo photoallergy: Negative
[2]; literature classification
  In vivo phototoxicity: Positive

## O=C1NC(=O)C(c2ccccc2)(c2ccccc2)N1 [No. 45, Phenytoin]
[1]; literature classification
  In vivo photoallergy: Negative
[1]; reported in References 1 and 2
  In vivo photoallergy: Negative
[2]; literature classification
  In vivo phototoxicity: Negative
[2]; reported in References 1 to 3
  In vivo phototoxicity: Negative

## [Na+].[O-]n1ccccc1=S [No. 26, Omadine (Na salt)]
[1]; in vivo
  In vivo photoallergy: Positive

## CN(C)[C@@H]1C(=O)C(C(N)=O)=C(O)[C@@]2(O)C(=O)C3=C(O)c4c(O)cccc4[C@@](C)(O)[C@H]3C[C@@H]12 [No. 36, Tetracycline, reference compound]
[1]; literature classification
  In vivo photoallergy: Negative
[7]
  Average score (%): 64.3%
[4]; under light irradiation
  NAL Depletion (%): 28.6%
[6]; under light irradiation
  NAC Depletion (%): 100.0%

## c1ccc2cc3ccccc3cc2c1 [No. 35, Anthracene]
[1]; literature classification
  In vivo photoallergy: Negative
[2]; literature classification
  In vivo phototoxicity: Positive

## CC(CN1c2ccccc2Sc2ccccc21)N(C)C (stereo not shown) [No. 14, Promethazine HCl]
[1]; literature classification
  In vivo photoallergy: Positive
[2]; literature classification
  In vivo phototoxicity: Positive

## COC(=O)c1ccccc1O [No. 43, Methyl salicylate]
[1]; literature classification
  In vivo photoallergy: Negative
[2]; literature classification
  In vivo phototoxicity: Negative

## Oc1c(Cl)cc(Cl)cc1Sc1cc(Cl)cc(Cl)c1O [No. 5, Bithionol]
[1]; literature classification
  In vivo photoallergy: Positive
[2]; literature classification
  In vivo phototoxicity: Positive
